# The source made the active and inactive calls. The rule behind the calls is not given here.
# Legend:
# [1] = Apparent permeability across apical to basolateral side in dog MDCK-MDR1 cells incubated for 60 mins by LC-MS/MS analysis; type: ADME, cell-based, Canis lupus familiaris
# [2] = Selectivity index, ratio of IC50 for rat L6 cells to IC50 for Trypanosoma brucei brucei 221; type: toxicity; details: read-out: Ratio IC50
# [3] = system: Trypanosoma brucei brucei; test: Antitrypanosomal activity against bloodstream form of Trypanosoma brucei brucei 221 assessed as parasite growth inhibition incubated for 48 hrs by resazurin staining based assay; type: functional, organism-based; details: for IC50: Trypanosoma brucei, 221, 48 h
# Calf thymus DNA [4] = test: Binding affinity to calf thymus DNA assessed as thermal stability by measuring melting temperature by spectrophotometric method; type: nucleic-acid assay; details: Bos taurus
# RNA = test: Binding affinity to major groove of ds-RNA (unknown origin) assessed as positive ICD band by CD spectroscopy; type: nucleic-acid assay
# [5] = system: Poly(dA-dU)oligonucleotide; test: Binding affinity to poly A-poly U (unknown origin) assessed as binding constant by fluorescence spectra analysis; type: nucleic-acid assay
# [6] = Apparent permeability across basolateral to apical side in dog MDCK-MDR1 cells incubated for 60 mins by LC-MS/MS analysis; type: ADME, cell-based, Canis lupus familiaris
# [7] = system: Trypanosoma brucei brucei; test: Antitrypanosomal activity against bloodstream form of Trypanosoma brucei brucei 221 assessed as parasite growth inhibition at 100 ug/ml incubated for 48 hrs by resazurin staining based assay relative to control; type: functional
# L6 = test: Cytotoxicity against rat L6 cells incubated for 6 days by resazurin dye based assay; type: cell-based; details: L6, 144 h
# Calf thymus DNA [8] = test: Binding affinity to calf thymus DNA assessed as binding constant by fluorescence spectra analysis; type: nucleic-acid assay; details: Bos taurus
# [9] = Efflux ratio of apparent permeability from basolateral to apical side over apical to basolateral side in MDCK-MDR1 cells; type: ADME, cell-based, Canis lupus familiaris; details: dog
# [10] = system: Trypanosoma brucei brucei; test: Potency index, ratio of nifurtimox IC50 to compound IC50 for antitrypanosomal activity against blood stream form of Trypanosoma brucei brucei 221; type: functional
# [11] = system: Trypanosoma brucei brucei; test: Antitrypanosomal activity against bloodstream form of Trypanosoma brucei brucei 221 assessed as parasite growth inhibition at 1 ug/ml incubated for 48 hrs by resazurin staining based assay relative to control; type: functional
# [12] = system: Poly(dA-dU)oligonucleotide; test: Binding affinity to poly A-poly U (unknown origin) assessed as thermal stability by measuring melting temperature by spectrophotometric method; type: nucleic-acid assay
# [13] = system: Poly(dA-dT)oligonucleotide; test: Binding affinity to poly (dA-dT)2 (unknown origin) assessed as thermal stability by measuring melting temperature by spectrophotometric method; type: nucleic-acid assay
# dsDNA = test: Binding affinity to minor groove of ds-DNA (unknown origin) assessed as positive ICD band by CD spectroscopy; type: nucleic-acid assay
# [14] = system: Poly(dA-dT)oligonucleotide; test: Binding affinity to p(dAdT)2 (unknown origin) assessed as binding constant by fluorescence spectra analysis; type: nucleic-acid assay
# [15] = system: Trypanosoma brucei brucei; test: Antitrypanosomal activity against bloodstream form of Trypanosoma brucei brucei assessed as parasite growth inhibition incubated for 3 days by alamar blue staining based assay; details: 72 h
# [16] = system: Trypanosoma brucei brucei; test: Antitrypanosomal activity against bloodstream form of Trypanosoma brucei brucei 221 assessed as parasite growth inhibition at 10 ug/ml incubated for 48 hrs by resazurin staining based assay relative to control; type: functional
SMILES,Papp A→B at 1 h [1],Papp B→A at 1 h [6],inhibition at 100 µg/mL [7],efflux ratio [9],other results
CCN(CC)CCOc1ccc(-c2nc3cc(C4=NCCN4)ccc3[nH]2)cc1OC.Cl.Cl,< 0.1 ×10⁻⁶ cm/s,0.5 ×10⁻⁶ cm/s,100%,> 5,"selectivity ratio [2]: > 350; IC50 [3]: 710 nM; IC90 ([3]; Trypanosoma brucei, 221, time 48 hrs): 1470 nM; ΔTm (Calf thymus DNA [4]): 7.2 °C; Activity (RNA): Active; log Ks [5]: 5.4; IC50 (L6): > 250 µM; log Ks (Calf thymus DNA [8]): 6.8; Ratio IC50 [10]: >2; inhibition at 1 µg/mL [11]: > 90%; ΔTm [12]: 2.3 °C; ΔTm [13]: 19.3 °C; Activity (dsDNA): Active; log Ks [14]: 7.1"
CC1CS(=O)(=O)CCN1/N=C/c1ccc([N+](=O)[O-])o1 (configuration not stated) [NIFURTIMOX],–,–,–,–,IC50 [15]: 2000 nM
Cl.Cl.O=C(COc1ccc(-c2nc3cc(C4=NCCN4)ccc3[nH]2)cc1F)N1CCOCC1,0.86 ×10⁻⁶ cm/s,0.99 ×10⁻⁶ cm/s,100%,1.16,–
Cl.Cl.O=C(COc1ccc(-c2nc3cc(C4=NCCN4)ccc3[nH]2)cc1)N1CCOCC1,1.06 ×10⁻⁶ cm/s,1.53 ×10⁻⁶ cm/s,100%,1.44,–
COc1cc(-c2nc3cc(C4=NCCN4)ccc3[nH]2)ccc1OCc1ccccn1.Cl,0.12 ×10⁻⁶ cm/s,0.52 ×10⁻⁶ cm/s,100%,4.22,–
Cl.O=C(COc1ccc(-c2nc3cc(C4=NCCN4)ccc3[nH]2)cc1F)c1ccccc1,< 0.1 ×10⁻⁶ cm/s,< 0.1 ×10⁻⁶ cm/s,100%,–,–
COc1cc(-c2nc3cc(C4=NCCN4)ccc3[nH]2)ccc1OCC(=O)N1CCOCC1.Cl.Cl,1.76 ×10⁻⁶ cm/s,1.38 ×10⁻⁶ cm/s,100%,0.78,–
Cl.c1cc(-c2nc3cc(C4=NCCN4)ccc3[nH]2)ccc1OCc1c[nH]nn1,0.46 ×10⁻⁶ cm/s,0.84 ×10⁻⁶ cm/s,100%,1.81,IC50 [3]: > 4000 nM; inhibition at 1 µg/mL [11]: > 90%
Cl.Fc1cc(-c2nc3cc(C4=NCCN4)ccc3[nH]2)ccc1OCc1cn(Cc2ccccc2)nn1,< 0.1 ×10⁻⁶ cm/s,0.09 ×10⁻⁶ cm/s,100%,–,–
Cl.Fc1cc(-c2nc3cc(C4=NCCN4)ccc3[nH]2)ccc1OCc1ccccn1,< 0.1 ×10⁻⁶ cm/s,0.2 ×10⁻⁶ cm/s,100%,> 2.4,inhibition at 10 µg/mL [16]: 40%
Cl.Cl.Fc1cc(-c2nc3cc(C4=NCCN4)ccc3[nH]2)ccc1OCc1cn(CCN2CCOCC2)nn1,0.49 ×10⁻⁶ cm/s,0.8 ×10⁻⁶ cm/s,100%,1.64,IC50 [3]: > 4000 nM

# From ChEMBL document CHEMBL4706577, “Design, synthesis, antitrypanosomal activity, DNA/RNA binding and in vitro ADME profiling of novel imidazoline-substituted 2-arylbenzimidazoles” (Eur J Med Chem, 2020)
